Data reported in patent publication US20190008897A1, “COMPOSITIONS AND METHODS FOR PRODUCING PRO-INFLAMMATORY MACROPHAGES” (UNIVERSITY OF WASHINGTON, priority 2015, published 2019).

Columns and labels:
MΦ-cTLR4 cells [1] = test: Cytokine profile (ELISA of supernatants) of MΦ-cTLR4 cells; format: cell-based, murine
Procedure: We tested IL-6 and TNFα concentrations in supernatants of transduced RAW264.7 cells in vitro. Briefly, MΦ-cTLR4 cells (1×106) were plated in each well of a 6-well plate and treated with vehicle (100% EtOH), LPS (100 ng/mL), CID drug (50 nM), or left untreated in DMEM without serum. Supernatants were collected and tested using the mouse IL-6 ELISA Ready-SET-Go! and the mouse TNFα ELISA Ready-SET-Go! Kits (eBioscience) according to the manufacturer's instructions. Plates were read at 450 nm with a 570 nm wavelength subtraction, normalized to standard solutions, and concentrations (pg/mL) were calculated.

MΦ-cTLR4 cells [2] = test: Western blot for iNOS in MΦ-cTLR4 cells; format: cell-based, murine; conditions: 24 h treatment; CID 50 nM, LPS 100 ng/mL
Procedure: (§1) Protein from RAW264.7, MΦ-T2A (vector control cells), and MΦ-cTLR4 cell monolayers were extracted by lysis in Laemmli buffer containing 1× Halt Protease Inhibitor cocktail (Thermo Scientific). Following lysis, samples were boiled and protein concentration was determined by performing a BCA assay from Thermo Scientific. Samples (10-30 μg of lysates) were run on 4-20% Mini-PROTEAN® TGX precast polyacrylamide gels (Bio-Rad). Protein from gels were transferred onto PVDF membranes and probed with the appropriate primary antibody overnight. Membranes were washed between each antibody incubation and subsequently probed with the appropriate HRP-conjugated secondary antibody (Life Technologies). The Clarity Western ECL Substrate (Bio-Rad) was used to detect bands.

[3] = test system: ERK1/2 phosphorylation in MΦ-cTLR4 cells; test: Western blot for p-ERK and total ERK (MyD88-dependent pathway); format: cell-based, murine; conditions: 0 to 60 minutes; CID 50 nM, LPS 100 ng/mL
Procedure: as §1
Following LPS stimulation and subsequent TNFα production, the TLR4 pathway leads to activation of NF-κB and the three MAPK pathways through the MyD88-dependent pathway. Both NF-κB and MAPK pathways directly control the transcription of the IL-6 and iNOS inflammatory genes, as well as control the mRNA stability of those transcripts. For the activated MΦ-cTLR4 cells, ERK1/2 phosphorylation is expected if the MyD88 dependent pathway and subsequent downstream TRAF6 activation has occurred. […]

[4] = test system: NF-κB promoter in MΦ-cTLR4 cells; test: Dual-Luciferase NF-κB reporter assay; format: cell-based, murine; conditions: CID 50 nM, 4 hours; compared to vehicle
Procedure: Two hundred thousand cells/well were seeded in 24-well plates. The following day each well was transfected with a total of 0.8 μg plasmid DNA, which consisted of a 20:1 ratio of pBllX-LUC (NFκB reporter construct):pRL (Renilla luciferase construct). The promoterless pGL4.10 vector was also transfected in a 20:1 ratio of pGL4.10:pRL, as a control. Transfections of each well were performed with 2 μL Lipofectamine 2000 (Invitrogen). The following morning transfection reagents were replaced with fresh serum-free medium and treated with either vehicle (100% EtOH) or CID drug (50 nM) for 4 hours. Cell lysate was harvested and luciferase activity was measured using a Dual-Luciferase® reporter assay kit (Promega) according to manufacturer's instructions. All groups were normalized to Renilla luciferase.

[5] = test system: IRF3 phosphorylation in MΦ-cTLR4 cells; test: Western blot for p-IRF3 and total IRF3 (MyD88-independent pathway); format: cell-based, murine; conditions: CID 50 nM, LPS 100 ng/mL; compared to vehicle
Procedure: as §1
To determine if the MΦ-cTLR4 cells were signaling through the MyD88-independent pathway, we tested for phosphorylated IRF3. […] The IRF3 phosphorylation of the CID- and LPS-treated MΦ-cTLR4 cells starts to decrease following the 2 hour timepoint and subsequently reaches similar levels as vehicle at the 6 and 12 hour timepoints.

bEnd.3 endothelial cells = test: Endothelial cell activation by MΦ-cTLR4 conditioned media (flow cytometry for VCAM-1 and ICAM-1); format: cell-based, mouse; conditions: media from MΦ-cTLR4 treated 6 h (TNFα 20 ng/mL, CID 50 nM); bEnd.3 incubated 12 h
Procedure: MΦ-cTRL4 conditioned media, following a 6 hour treatment in 6-well plates (1×10^6 cells/well), was transferred to plated bEnd.3 cells in a 12-well plate (0.2×10^6 cells/well). Before media transfer, TNFα neutralizing and IgG isotype antibody (1 μg/mL) were incubated in media for 15 minutes. Media was then added to bEnd.3 cells for 12 hours. Following incubation, bEnd.3 cells were trypsinized and stained for ICAM-1 and VCAM-1. Cell cytometry was performed on a FACSCanto II Cell Analyzer (BD Biosciences) equipped with 488 nm and 647 nm lasers. Typically, 10,000 cells were analyzed per sample. Experiments were repeated at least three times. Non-specific staining was evaluated using a monoclonal antibody for IgG2b and IgG2a (eBioscience).

[6] = test system: MΦ-cTLR4 cells co-cultured with rat aortic ECs (RAECs); test: Co-culture tube formation (angiogenesis) assay; format: cell-based; conditions: CID 50 nM or LPS 100 ng/mL added to the medium
Description: Untreated MΦ-cTLR4 cells co-cultured with rat aortic ECs (RAECs), with no added factors to the medium, had the least amount of isolated segments, the least amount of branches, and the most amount of branching interval.

[7] = test system: MΦ-cTLR4 cells in Matrigel plug; test: In vivo Matrigel plug with MΦ-cTLR4 cells; parameters: species or system BALB/c mice; conditions: 14 day; CID drug 2 mg/kg intraperitoneal every other day; s.c. Matrigel plug
Procedure: Four groups of 4 week old female BALB/c mice (total of 16 mice) were used in this in vivo study. The four groups consisted of: 7 day non-treated mice, 7 day CID-treated mice, 14 day non-treated mice, and 14 day CID-treated mice. At day of injection, pre-plated MΦ-cTLR4 cells were lifted off and counted. 0.5×10^6 cells were s.c. injected mixed in with Matrigel into the right back dorsal area of the mouse. Before placing mouse back in cage, mice were injected with the first intraperitoneal CID drug dose (2 mg/kg mouse weight). Treatment groups were given CID drug injections every other day during the course of the experiment (FIG. 20).

MΦ-cTLR4 cells [8] = test: ELISA for VEGF-A in MΦ-cTLR4 medium; format: cell-based, murine; conditions: for VEGF expression compared to controls: single treatment (FIG. 22A)
Procedure: In order to determine if the MΦ-cTLR4 cells were expressing the key angiogenic molecule VEGF-A, an ELISA was performed to test for VEGF-A levels in MΦ-cTLR4 medium following various treatments (FIG. 22A). […] Since studies have shown human and rat MΦs express increased VEGF with IFN-γ treatment, the response was also tested with this factor.

[9] = 24 h treatment, CID drug 50 nM, compared to uninduced controls

| Molecule | time to upregulation of key pro-inflammatory markers after CID drug addition (MΦ-cTLR4 cells [1]) [h] | IL-6 levels (MΦ-cTLR4 cells [1]; [9]) | TNFα levels (MΦ-cTLR4 cells [1]; [9]) | time IL-6 levels stayed activated (MΦ-cTLR4 cells [1]; constant CID drug (50 nM) in media) [h] | time elevated levels of TNFα, IL-6 and iNOS are maintained (MΦ-cTLR4 cells [1]; constant CID drug (50 nM) in media, changed every 24 h) | dose producing the maximum activation of MΦ-cTLR4 cells (IL-6 ELISA) (MΦ-cTLR4 cells [1]; titration 50 nM-250 nM, 24 h treatment) | iNOS expression (130 kDa band) (MΦ-cTLR4 cells [2]) | ERK1/2 phosphorylation (p-ERK/total ERK ratio relative to zero timepoint) [3] | NF-κB promoter activation (luciferase activity normalized to Renilla) [4] | time of activation peak of p-IRF3/total IRF3 ratio [5] [h] | EC positive for ICAM-1 (bEnd.3 endothelial cells) [%] | EC positive for VCAM-1 (bEnd.3 endothelial cells) [%] | branching interval vs untreated co-cultures [6] | isolated segments [6] | number of branches vs untreated co-cultures [6] | number of master segments compared to the control [6] | co-localization of GFP MΦ-cTLR4 cells and iNOS regions in plug [7] | VEGF expression compared to controls (MΦ-cTLR4 cells [8]) | VEGF compared to the control, IFN-γ alone or in cocktail (MΦ-cTLR4 cells [8]; IFN-γ alone or cocktail with CID or LPS (FIG. 22B)) |
| --- | --- | --- | --- | --- | --- | --- | --- | --- | --- | --- | --- | --- | --- | --- | --- | --- | --- | --- | --- |
| CC[C@H](C(=O)N1CCCC[C@H]1C(=O)O[C@H](CCc1ccc(OC)c(OC)c1)c1cccc(OCC(=O)NCC(CNC(=O)COc2cccc([C@@H](CCc3ccc(OC)c(OC)c3)OC(=O)[C@@H]3CCCCN3C(=O)[C@@H](CC)c3cc(OC)c(OC)c(OC)c3)c2)CN(C)C)c1)c1cc(OC)c(OC)c(OC)c1 [CID drug, AP20187] | 6 | increased | increased | 72 | at least 48 hours | at least 50 nM | much lower intensity than the LPS-treated cells | upregulation of ERK1/2 phosphorylation at the 5 minute timepoint | increased NF-κB promoter activation | 2 | 64.4 | 93.7 | smaller branching interval | slightly more isolated segments than the untreated group | much more branches | not significantly different | occurrences of GFP/iNOS co-localization | significantly decreased amounts of VEGF |  |
| lipopolysaccharides [LPS] |  |  |  |  |  |  | substantial increase in iNOS expression |  |  | 2 |  |  | smaller branching interval | highest number of isolated segments | much more branches | not significantly different |  | significantly decreased amounts of VEGF |  |
| TNFα: recombinant mouse TNFα purchased from Sigma (protein) LRSSSQNSSDKPVAHVVANHQVEEQLEWLSQRANALLANGMDLKDNQLVVPADGLYLVYSQVLFKGQGCPDYVLLTHTVSRFAISYQEKVNLLSAVKSPCPKDTPEGAELKPWYEPIYLGGVFQLEKGDQLSAEVNLPKYLDFAESGQVYFGVIAL |  |  |  |  |  |  |  |  |  |  | 57.2 | 93.5 |  |  |  |  |  |  |  |
| IFN-γ: cytokine IFN-γ used to treat MΦ-cTLR4 cells (protein, UniProt P01580 23-155, looked up) Interferon gamma: HGTVIESLESLNNYFNSSGIDVEEKSLFLDIWRNWQKDGDMKILQSQIISFYLRLFEVLKDNQAISNNISVIESHLITTFFSNSKAKKDAFMSIAKFEVNNPQVQRQAFNELIRVVHQLLPESSLRKRKRSRC |  |  |  |  |  |  |  |  |  |  |  |  |  |  |  |  |  |  | significant decrease in VEGF |
